Laboratory results reported in patent US5116851A, “Pharmaceutical composition and method for treating cardiovascular diseases using substituted anilides and sulfonamides” (E. R. Squibb & Sons, Inc., priority 1990, dated 1992).

Tests used:
[1] = test system: Ischemic and Nonischemic Isolated Rat Heart; assay: Isolated perfused rat heart (Langendorff), global ischemia/reperfusion: cardiac function, flow and LDH release; set-up: species or system rat (male Sprague-Dawley); FLOW (coronary blood flow): unit not given here; conditions: 1 μM
Experimental: Lactate dehydrogenase is an enzyme released in the heart during an ischemic event and is an index of cardiac cell necrosis. In the Grover et al. model, this is measured during reperfusion and an agent which provides for lower release levels of LDH is considered to offer greater cardioprotection since lower LDH indicates a smaller infarct size. Cardiac function is determined using the double product (DP) of heart rate times the left ventricular developed pressure (LVDP) divided by 1,000.
The lower the value for DP before ischemia for a given agent, the more cardiodepressant it is considered to be.
Male Sprague-Dawley rats (450-550 g) were used in all experiments. The rats were anesthetized using 30 mg/kg sodium pentobarbital (i.p.). They were intubated and then treated with i.v. heparin (1000 U/kg). While being mechanically ventilated, their hearts were perfused in situ via retrograde cannulation of the aorta. The hearts were then excised and quickly moved to a Langendorff apparatus where they were perfused with Krebs-Henseleit bicarbonate buffer (112 mM NaCl, 5 mM KCl, 1.2 mMMg SO4, 1 mM KH2 PO4, 1.25 mM CaCl2, 11.5 mM dextrose, and 2 mM pyruvate) at a constant pressure (75 mm Hg). A water filled latex balloon attached to a metal cannula was then inserted into the left ventricle and connected to a Statham pressure transducer for measurement of left ventricular pressure. The hearts were allowed to equilibrate for 15 minutes at which time end diastolic pressure (EDP) was adjusted to 5 mm Hg and this was maintained for 5 minutes. Pre-ischemia or pre-drug function, heart rate and coronary blood flow (extracorporeal electromagnetic flow probe, Carolina Medical Electronics, King, N.C.) were then measured. Cardiac function was determined using the double product of heart rate (HR) times left ventricular developed pressure (LVDP) divided by 1,000.
All of these hearts were treated with their respective drugs or vehicle for ten minutes. At this time, post-drug cardiac function and flow were measured and then the hearts were made globally ischemic by shutting off the buffer perfusion. The ischemia was maintained for 25 minutes at which time reperfusion with nondrug treated buffer was instituted. Reperfusion was maintained for 30 minutes and at this time reperfusion function and flow were again determined.
At the end of the reperfusion period, the reperfusion buffer was sampled for cumulative LDH release as previously described. LDH release was expressed as U/g preischemia heart weight for the 30 minute collection period. LDH release is a sensitive index for loss of cell viability. Determination of the relationship between pre-ischemic, post-drug cardiac function was made by dividing the double product (HR ×LVDP/1000) by the cumulative LDH release.
All data were analyzed using a one way analysis of variance. Multiple comparisons were done using the Duncan procedure. All data are expressed as the mean±SE.
The pre-ischemia DP values are a measure of the cardiodepression of the drug on the healthy cardiac tissue.
The post-ischemia LDH values are a measure of the cardioprotection or anti-ischemic activity of the drug. In this case, lower values indicate greater anti-ischemic activity or greater cardioprotection.
The LDH/DP values are the ratio of cardioprotection to cardiodepression, the lower values indicating a greater selectivity for anti-ischemic activity.
The post-ischemia DP indicates cardiodepression after the ischemic episode and the lower DP values here are indicative of agents which still remained in the cardiac tissue for more than 30 minutes post ischemia. [drawing 16]

[2] = test system: isolated canine cardiac Purkinje fibers; assay: Calcium-dependent slow response action potential amplitude (SAPA), standard microelectrode techniques; assay type: cell-based; conditions: Canis lupus familiaris, read-out: IC50 in reducing slow response action potential amplitude (SAPA)
Experimental: (§1) The calcium channel blocking and sodium entry blocking activities of compounds of the present invention were tested using standard microelectrode techniques in isolated canine cardiac Purkinje fibers as reported in J. L. Bergey et al., "Antiarrhythmic, hemodynamic, and cardiac electrophysiological evaluation of N-(2,6-dimethylphenyl)-N'-[3-(1-methylethylamino)propyl]-urea), (Wy 42,362)", Arzneim -Forsch, 33:1258, 1983). […] Depression of this parameter indicates depression of calcium entry into cardiac tissue. […] Significant depression of the upstroke velocity (vmax) indicates the blocking of sodium entry into cardiac tissue.

[3] = test system: isolated canine cardiac Purkinje fibers; assay: Normal action potential parameters incl. upstroke velocity (Vmax; sodium entry), standard microelectrode techniques; assay type: cell-based; conditions: for Vmax (velocity of upstroke): in V/s (unit assumed)
Experimental: as §1

rabbit aorta = assay: Reduction of tone of rabbit aorta by high potassium (Vasc. Ca^++ Block); assay type: cell-based; conditions: Oryctolagus cuniculus; read-out: IC50 in reducing tone of rabbit aorta by high potassium (Vasc. Ca^++ Block)
Description: |(SAPA), in reducing maximum upstroke velocity (Vmax) |and in reducing tone of rabbit aorta by high potassium |(Vasc. Ca^++ Block)

[4] = test system: 24 hour post-infarction arrhythmias in dogs; assay: Antiarrhythmic activity in standard canine arrhythmia model (24 hour post-infarction arrhythmias); assay type: in vivo, dog; conditions: intravenous doses ranging from 6 to 15 mg/kg
Experimental: Antiarrhythmic activity was confirmed for the compound of Example 1 using a standard canine arrhythmia model as reported in J. L. Bergey et al., "Antiarrhythmic, hemodynamic, and cardiac electrophysiological evaluation of N-(2,6-dimethylphenyl)-N'-[3-(1-methylethylamino)propyl]urea), (Wy 42,362)", Arzneim -Forsch, 33:1258, 1983). In dogs suffering from 24 hour post-infarction arrhythmias the compound of Example 1 reversed arrhythmias in 5 out of 5 dogs tested following intravenous doses ranging from 6 to 15 mg/kg.

[5] = Postischemia (30 min.), occlusion 25 minutes, reperfusion 30 minutes

In the case of `CN(C)CCCN(C(=O)Cc1ccccc1)c1ccccc1SCc1ccc(Cl)cc1` [Example 1, N-[2-[[(4-Chlorophenyl)methyl]thio]phenyl]-N-[3-(dimethylamino)propyl]benzeneacetamide], the “DP (Double Product, HR x LVDP / 1,000)” value [1, 5] is reported as 7, the “FLOW (coronary blood flow)” value [1, 5] is reported as 12 and the “HR (Heart Rate)” value [1, 5] is reported as 211 beats/min. For the same molecule, the “LVDP (Left Ventricular Developed Pressure)” value [1, 5] was 34 mmHg, the “LDH (Lactate Dehydrogenase Release)” value ([1]; Postischemia, cumulative over 30 min reperfusion, per g preischemia heart weight, lower = greater cardioprotection) was 12 U/g and the “FLOW (coronary blood flow)” value ([1]; Preischemia (Post Drug)) was 25. For the same molecule, the “HR (Heart Rate)” value ([1]; Preischemia (Post Drug)) was 229 beats/min, the “LVDP (Left Ventricular Developed Pressure)” value ([1]; Preischemia (Post Drug)) was 90 mmHg and the “DP (Double Product, HR x LVDP / 1,000)” value ([1]; Preischemia (Post Drug), lower = more cardiodepressant) was 21. For the same molecule, the “cardioprotection compared with diltiazem” value ([1]; post-ischemia LDH) was “comparable to diltiazem in cardioprotection”, the LDH/DP ([1]; ratio of cardioprotection to cardiodepression, lower = greater selectivity) was 0.55 and the IC50 [2] was greater than 10 µM. The “APD 50 (action potential duration @ 50% repolarization)” value ([3]; 1 × 10^-5) was 160 ± 3, the “APD90 (action potential duration @ 90% repolarization)” value ([3]; 1 × 10^-5) was 320 ± 3 and the “PP (peak potential)” value ([3]; 1 × 10^-5) was 11 ± 2. The “RP (resting potential)” value ([3]; 1 × 10^-5) was 89 ± 1, the “Vmax (velocity of upstroke)” value ([3]; 1 × 10^-5) was 203 ± 19 and the “APD 50 (action potential duration @ 50% repolarization)” value ([3]; 1 × 10^-6) was 219 ± 3. For the same molecule, the “APD90 (action potential duration @ 90% repolarization)” value ([3]; 1 × 10^-6) was 320 ± 3, the “PP (peak potential)” value ([3]; 1 × 10^-6) was 35 ± 1 and the “RP (resting potential)” value ([3]; 1 × 10^-6) was 94 ± 1. The “Vmax (velocity of upstroke)” value ([3]; 1 × 10^-6) was 443 ± 7, the “APD 50 (action potential duration @ 50% repolarization)” value ([3]; 3 × 10^-6) was 154 ± 3 and the “APD90 (action potential duration @ 90% repolarization)” value ([3]; 3 × 10^-6) was 305 ± 4. The “PP (peak potential)” value ([3]; 3 × 10^-6) was 28 ± 1, the “RP (resting potential)” value ([3]; 3 × 10^-6) was 89 ± 1 and the “Vmax (velocity of upstroke)” value ([3]; 3 × 10^-6) was 375 ± 11. For the same molecule, the IC50 ([3]; Canis lupus familiaris, purkinje, sodium entry, read-out: IC50 in reducing maximum upstroke velocity (Vmax)) was 6.7 µM, the IC50 (rabbit aorta) was 1.6 µM and the “reversed arrhythmias (dogs tested)” value [4] was 5 out of 5.
